This is an account of results in US20080015237A1 (ASTRAZENECA AB, priority 2006, published 2008).

In the assay the target is human Kv1.5 channel (Homo sapiens, UniProt P22460). In words: Test A: Rb+ efflux assay. It counts as cell-based. The conditions noted are these: CHO cells stably transfected with cDNA for human Kv1.5. As for the experimental part: This assay identifies compounds that block the human Kv1.5 channel potassium channel heterologously expressed in Chinese Hamster Ovary (CHO) cells by means of Rb+ ion efflux using Flame Atomic Absorption Spectroscopy. For experimental studies, CHO cells stably transfected with cDNA for human Kv1.5 were grown as confluent layers in Falcon, 384-well tissue culture-treated black-walled clear-bottomed plates and the plates were incubated overnight at 37° C. in a cell culture incubator.
Sequence of human Kv1.5 channel (P22460 whole entry): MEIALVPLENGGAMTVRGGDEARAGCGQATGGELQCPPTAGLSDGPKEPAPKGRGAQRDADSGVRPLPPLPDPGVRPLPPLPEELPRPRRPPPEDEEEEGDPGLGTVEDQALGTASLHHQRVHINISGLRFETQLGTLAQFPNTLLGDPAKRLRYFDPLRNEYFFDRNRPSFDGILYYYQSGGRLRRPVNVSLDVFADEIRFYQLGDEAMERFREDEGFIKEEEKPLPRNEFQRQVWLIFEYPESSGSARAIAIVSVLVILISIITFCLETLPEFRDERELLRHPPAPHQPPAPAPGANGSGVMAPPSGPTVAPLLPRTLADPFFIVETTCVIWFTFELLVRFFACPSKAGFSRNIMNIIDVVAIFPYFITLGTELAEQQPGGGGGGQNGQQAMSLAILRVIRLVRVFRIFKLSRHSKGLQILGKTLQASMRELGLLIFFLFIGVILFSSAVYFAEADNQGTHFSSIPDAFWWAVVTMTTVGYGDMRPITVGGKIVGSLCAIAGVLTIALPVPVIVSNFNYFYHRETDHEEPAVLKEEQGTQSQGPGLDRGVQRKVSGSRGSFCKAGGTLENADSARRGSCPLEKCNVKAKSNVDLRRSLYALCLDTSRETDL
After incubating overnight the cell plates were washed and a buffer containing Rb+ ions were added to the cell plates. The plates were then incubated for another 3-4 hours in a CO2-incubator (37° C.). Following this incubation period plates were washed, compounds were added and subsequently a buffer containing elevated K+ concentrations were added in order to activate the Kv1.5 channel. Following a short incubation time, aliquots of the supernatants were transferred to supernatant plates for subsequent determination of the Rb+ content using Atomic Absorption Spectrometry (ICR8000 instrument, Aurora Biomed Inc.).
Usually IC50 stands for the concentration needed to halve the response being measured. Consider `CC(C)(C)NC(=O)C1c2cc(Cl)ccc2C(=O)N1Cc1ccccc1C(F)(F)F` (stereo not shown) [N-(tert-butyl)-6-chloro-3-oxo-2-[2-(trifluoromethyl)benzyl]isoindoline-1-carboxamide], for which the IC50 was 1100 nM.

For the compound `CC(C)(C)CN1C(=O)c2ccccc2C1C(=O)NCc1cccc(OC(F)F)c1` (stereo not shown) [N-[3-(difluoromethoxy)benzyl]-2-(2,2-dimethylpropyl)-3-oxoisoindoline-1-carboxamide], it took 1300 nM to reach half-maximal inhibition (IC50). This IC50 and that of the compound before are within 1.5-fold of each other.

As for `CC(C)(C)CCN1C(=O)c2ccccc2C1C(=O)NCc1cccc(OC(F)F)c1` (stereo not shown) [N-[3-(difluoromethoxy)benzyl]-2-(3,3-dimethylbutyl)-3-oxoisoindoline-1-carboxamide], 1800 nM corresponded to half-maximal inhibition (IC50).

The compound `CC(c1ccccc1)N1C(=O)c2ccccc2C1C(=O)NCc1cccc(OC(F)F)c1` (stereo not shown) [N-[3-(difluoromethoxy)benzyl]-3-oxo-2-(1-phenylethyl)isoindoline-1-carboxamide] came in with an IC50 of 2400 nM. This IC50 and that of the compound before are within 1.5-fold of each other.

The compound `CC(C)(CO)CN1C(=O)c2ccc(F)cc2C1C(=O)NCc1cccc(OC(F)F)c1` (stereo not shown) [N-[3-(difluoromethoxy)benzyl]-6-fluoro-2-(3-hydroxy-2,2-dimethylpropyl)-3-oxoisoindoline-1-carboxamide] came in with a concentration for half-maximal inhibition (IC50) of 1400 nM.

`CC(C)(c1ccccc1)N1C(=O)c2ccccc2C1C(=O)NCc1ccccc1` (stereo not shown) [N-benzyl-2-(1-methyl-1-phenylethyl)-3-oxoisoindoline-1-carboxamide] registered a concentration for half-maximal inhibition (IC50) of 1700 nM.

Take `O=C(NCc1ccccc1)C1c2ccccc2C(=O)N1Cc1ccccc1Br` (stereo not shown) [N-benzyl-2-(2-bromobenzyl)-3-oxoisoindoline-1-carboxamide]: the IC50 came to 2500 nM.

`O=C(NCc1ccccc1)C1c2ccccc2C(=O)N1CCC1=CCCCC1` (stereo not shown) [N-benzyl-2-(2-cyclohex-1-en-1-ylethyl)-3-oxoisoindoline-1-carboxamide] registered an IC50 of 1800 nM.

Turning to `O=C(NCc1ccccc1)C1c2ccccc2C(=O)N1Cc1ccccc1-c1ccccc1` (stereo not shown) [N-benzyl-2-(biphenyl-2-ylmethyl)-3-oxoisoindoline-1-carboxamide], inhibition was half-maximal at 1000 nM (IC50). This IC50 lies about 1.8-fold lower than the previous one.

`O=C(NCc1ccccc1)C1c2cc(Cl)ccc2C(=O)N1Cc1ccccc1-c1ccccc1` (stereo not shown) [N-benzyl-2-(biphenyl-2-ylmethyl)-6-chloro-3-oxoisoindoline-1-carboxamide] came in with an IC50 of 420 nM. This IC50 is about 2.4-fold lower than that of the compound before.

As to `O=C(NCc1ccccc1)C1c2cc(F)ccc2C(=O)N1Cc1ccccc1-c1ccccc1` (stereo not shown) [N-benzyl-2-(biphenyl-2-ylmethyl)-6-fluoro-3-oxoisoindoline-1-carboxamide], the IC50 turned out to be 1000 nM.

In turn, `O=C(NCc1ccccc1)C1c2ccccc2C(=O)N1CCc1ccc(Cl)cc1` (stereo not shown) [N-benzyl-2-[2-(4-chlorophenyl)ethyl]-3-oxoisoindoline-1-carboxamide] registered a concentration for half-maximal inhibition (IC50) of 560 nM.

`CCN(Cc1ccccc1)C(=O)C1c2ccccc2C(=O)N1CCc1ccc(Cl)cc1` (stereo not shown) [N-benzyl-2-[2-(4-chlorophenyl)ethyl]-N-ethyl-3-oxoisoindoline-1-carboxamide] registered a concentration for half-maximal inhibition (IC50) of 930 nM.

`CN(Cc1ccccc1)C(=O)C1c2ccccc2C(=O)N1CCc1ccc(Cl)cc1` (stereo not shown) [N-benzyl-2-[2-(4-chlorophenyl)ethyl]-N-methyl-3-oxoisoindoline-1-carboxamide]: the IC50 was found to be 890 nM.

For `CC(CN1C(=O)c2ccccc2C1C(=O)NCc1ccccc1)c1ccc(Cl)cc1` (stereo not shown) [N-benzyl-2-[2-(4-chlorophenyl)propyl]-3-oxoisoindoline-1-carboxamide], the IC50 is 510 nM.

Consider `COc1ccc2c(c1OC)C(=O)N(CC(C)c1ccc(Cl)cc1)C2C(=O)NCc1ccccc1` (stereo not shown) [N-benzyl-2-[2-(4-chlorophenyl)propyl]-4,5-dimethoxy-3-oxoisoindoline-1-carboxamide], for which the IC50 stood at 610 nM.

As to `COc1cc2c(cc1OC)C(C(=O)NCc1ccccc1)N(CC(C)c1ccc(Cl)cc1)C2=O` (stereo not shown) [N-benzyl-2-[2-(4-chlorophenyl)propyl]-5,6-dimethoxy-3-oxoisoindoline-1-carboxamide], the IC50 was 740 nM.

`COc1ccc2c(c1)C(=O)N(CC(C)c1ccc(Cl)cc1)C2C(=O)NCc1ccccc1` (stereo not shown) [N-benzyl-2-[2-(4-chlorophenyl)propyl]-5-methoxy-3-oxoisoindoline-1-carboxamide] showed an IC50 of 710 nM. The IC50 values of the last two compounds are within 1.5-fold of each other.

`CC(c1ccccc1)N1C(=O)c2ccccc2C1C(=O)NCc1ccccc1` (stereo not shown) [N-benzyl-3-oxo-2-(1-phenylethyl)isoindoline-1-carboxamide] showed an IC50 of 6000 nM.

In the case of `CCC(c1ccccc1)N1C(=O)c2ccccc2C1C(=O)NCc1ccccc1` (stereo not shown) [N-benzyl-3-oxo-2-(1-phenylpropyl)isoindoline-1-carboxamide], half-maximal inhibition (IC50) required 400 nM.

`O=C(NCc1ccccc1)C1c2ccccc2C(=O)N1Cc1cc(-c2ccccc2)no1` (stereo not shown) [N-benzyl-3-oxo-2-[(3-phenylisoxazol-5-yl)methyl]isoindoline-1-carboxamide]: the 50% inhibitory concentration (IC50) is 1000 nM.

On to `C[C@H](c1ccccc1)N1C(=O)c2cc(Br)ccc2C1C(=O)NCc1ccccc1` (stereo partly drawn) [N-benzyl-5-bromo-3-oxo-2-[(1R)-1-phenylethyl]isoindoline-1-carboxamide], for which the IC50 amounted to 2100 nM.

For `C[C@H](c1ccccc1)N1C(=O)c2ccc(Br)cc2C1C(=O)NCc1ccccc1` (stereo partly drawn) [N-benzyl-6-bromo-3-oxo-2-[(1R)-1-phenylethyl]isoindoline-1-carboxamide], half-maximal inhibition (IC50) required 210 nM.

Turning to `CC(CN1C(=O)c2ccc(Cl)cc2C1C(=O)NCc1ccccc1)c1ccc(Cl)cc1` (stereo not shown) [N-benzyl-6-chloro-2-[2-(4-chlorophenyl)propyl]-3-oxoisoindoline-1-carboxamide], the IC50 amounted to 150 nM.

`C[C@H](c1ccccc1)N1C(=O)c2ccc(Cl)cc2C1C(=O)NCc1ccccc1` (stereo partly drawn) [N-benzyl-6-chloro-3-oxo-2-[(1R)-1-phenylethyl]isoindoline-1-carboxamide] showed a half-inhibitory concentration (IC50) of 550 nM.

Turning to `C[C@@H](c1ccccc1)N1C(=O)c2ccc(Cl)cc2C1C(=O)NCc1ccccc1` (stereo partly drawn) [N-benzyl-6-chloro-3-oxo-2-[(1S)-1-phenylethyl]isoindoline-1-carboxamide], the midpoint of inhibition, the IC50, lay at 2200 nM.

`O=C(NCc1ccccc1)C1c2cc(F)ccc2C(=O)N1Cc1ccccc1C(F)(F)F` (stereo not shown) [N-benzyl-6-fluoro-3-oxo-2-[2-(trifluoromethyl)benzyl]isoindoline-1-carboxamide] showed an IC50 of 1400 nM.

Turning to `C[C@H](c1ccccc1)N1C(=O)c2ccc(F)cc2C1C(=O)NCc1ccccc1` (stereo partly drawn) [N-benzyl-6-fluoro-3-oxo-2-[(1R)-1-phenylethyl]isoindoline-1-carboxamide], the midpoint of inhibition, the IC50, lay at 1300 nM. This IC50 and that of the compound before are within 1.5-fold of each other.

`CCCCN(Cc1ccccc1)C(=O)C1c2ccccc2C(=O)N1CCc1ccc(Cl)cc1` (stereo not shown) [N-benzyl-N-butyl-2-[2-(4-chlorophenyl)ethyl]-3-oxoisoindoline-1-carboxamide]: inhibition was half-maximal at 340 nM (IC50). Compared with the last compound, the IC50 is about 3.8-fold lower.

Turning to `CCCCNC(=O)C1c2ccccc2C(=O)N1CC(C)(C)c1ccc(Cl)cc1` (stereo not shown) [N-butyl-2-[2-(4-chlorophenyl)-2-methyl-propyl]-3-oxo-1H-isoindole-1-carboxamide], the 50% inhibitory concentration (IC50) was 530 nM.

The compound `CCCCNC(=O)C1c2ccccc2C(=O)N1CC(C)c1ccc(Cl)cc1` (stereo not shown) [N-butyl-2-[2-(4-chlorophenyl)propyl]-3-oxoisoindoline-1-carboxamide] returned a concentration for half-maximal inhibition (IC50) of 730 nM.
